The text below walks through data of US7834030B2, “Phenyl-[1,2,4]-oxadiazol-5-one derivatives, pharmaceutical compositions and therapeutic use thereof” (Sanofi-Aventis, priority 2005, dated 2010).

SMILES strings stand for the structures.

The assay concerns the target T1, human PPARalpha (Homo sapiens, UniProt Q07869).
T1 construct: human PPARalpha receptor (amino acids S167-Y468); expressed in transfected cells; plasmid pcDNA3
T1 sequence (Q07869 167-468): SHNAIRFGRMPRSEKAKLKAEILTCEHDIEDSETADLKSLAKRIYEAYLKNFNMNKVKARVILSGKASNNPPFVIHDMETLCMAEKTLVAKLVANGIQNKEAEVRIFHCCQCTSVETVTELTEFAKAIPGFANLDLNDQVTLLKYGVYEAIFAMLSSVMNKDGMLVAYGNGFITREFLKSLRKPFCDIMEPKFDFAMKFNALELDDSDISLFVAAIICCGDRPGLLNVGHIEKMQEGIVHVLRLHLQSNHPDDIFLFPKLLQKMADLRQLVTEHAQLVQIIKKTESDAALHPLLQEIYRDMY
Nature of the assay: cellular PPARalpha assay (GAL4 luciferase reporter, stably transfected HEK cell line). It counts as cell-based. The procedure: The activity of the compounds was tested through the determination of EC50 values of PPAR agonists in the cellular PPARalpha assay. The potency of substances which bind to human PPARalpha and activate it in an agonistic manner was analyzed using a stably transfected HEK cell line (HEK=human embryo kidney) which is referred to here as PPARalpha reporter cell line. It contains two genetic elements, a luciferase reporter element (pdeltaM-GAL4-Luc-Zeo) and a PPARalpha fusion protein (GR-GAL4-humanPPARalpha-LBD) which mediates expression of the luciferase reporter element depending on a PPARalpha ligand. The stably and constitutively expressed fusion protein GR-GAL4-humanPPARalpha-LBD binds in the cell nucleus of the PPARalpha reporter cell line via the GAL4 protein portion to the GAL4 DNA binding motifs 5′-upstream of the luciferase reporter element which is stably integrated in the genome of the cell line. There is only weak expression of the luciferase reporter gene in the absence of a PPARalpha ligand if fatty acid-depleted fetal calf serum (cs-FCS) is used in the assay. PPARalpha ligands bind and activate the PPARalpha fusion protein and thereby stimulate the expression of the luciferase reporter gene. The luciferase which is formed can be detected by means of chemiluminescence via an appropriate substrate.
The PPARalpha reporter cell line was prepared in two stages. Firstly, the luciferase reporter element was constructed and stably transfected into HEK cells. For this purpose, five binding sites of the yeast transcription factor GAL4 (Accession # AF264724) were cloned in 5′-upstream of a 68 bp-long minimal MMTV promoter (Accession # V01175). The minimal MMTV promoter section contains a CCAAT box and a TATA element in order to enable efficient transcription by RNA polymerase II. The cloning and sequencing of the GAL4-MMTV construct took place in analogy to the description of Sambrook J. et. al. (Molecular cloning, Cold Spring Harbor Laboratory Press, 1989). Then the complete Photinus pyralis gene (Accession # M15077) was cloned in 3′-downstream of the GAL4-MMTV element. After sequencing, the luciferase reporter element consisting of five GAL4 binding sites, MMTV promoter and luciferase gene was recloned into a plasmid which confers zeocin resistance in order to obtain the plasmid pdeltaM-GAL4-Luc-Zeo. This vector was transfected into HEK cells in accordance with the statements in Ausubel, F. M. et al. (Current protocols in molecular biology, Vol. 1-3, John Wiley & Sons, Inc., 1995).
In a second step, the PPARalpha fusion protein (GR-GAL4-humanPPARalpha-LBD was introduced into the stable cell clone described. For this purpose, initially the cDNA coding for the N-terminal 76 amino acids of the glucocorticoid receptor (Accession # P04150) was linked to the cDNA section coding for amino acids 1-147 of the yeast transcription factor GAL4 (Accession # P04386). The cDNA of the ligand-binding domain of the human PPARalpha receptor (amino acids S167-Y468; Accession # S74349) was cloned in at the 3′-end of this GR-GAL4 construct. The fusion construct prepared in this way (GR-GAL4-humanPPARalpha-LBD) was recloned into the plasmid pcDNA3 (Invitrogen) in order to enable constitutive expression therein by the cytomegalovirus promoter. This plasmid was linearized with a restriction endonuclease and stably transfected into the previously described cell clone containing the luciferase reporter element. The finished PPARalpha reporter cell line which contains a luciferase reporter element and constitutively expresses the PPARalpha fusion protein (GR-GAL4-human PPARalpha-LBD) was isolated by selection with zeocin (0.5 mg/ml) and G418 (0.5 mg/ml).
The activity of PPARalpha agonists was determined in a 3-day assay, which is described below: […]
(In a reporter assay the amount or activity of a reporter protein is the signal.)

One may read the EC50 as the concentration that produces a half-maximal response. High values mean a less potent agent, low ones a more potent agent.

`CCC(Oc1ccc(-c2noc(=O)[nH]2)c(Cl)c1)c1sc(-c2ccc(C(F)(F)F)cc2)nc1C` (racemic) [Example 4, 3-(2-Chloro-4-{1-[4-methyl-2-(4-trifluoromethyl-phenyl)-thiazol-5-yl]-propoxy}-phenyl)-4H-[1,2,4]oxadiazol-5-one] returned an EC50 of 12 nM.

`Cc1nc(-c2ccc(C(F)(F)F)cc2)sc1C(Cc1ccccn1)Oc1ccc(-c2noc(=O)[nH]2)c(Cl)c1` (racemic) [Example 10, 3-(2-Chloro-4-{1-[4-methyl-2-(4-trifluoromethyl-phenyl)-thiazol-5-yl]-2-pyridin-2-yl-ethoxy}-phenyl)-4H-[1,2,4]oxadiazol-5-one] had an EC50 of 4380 nM.

`CCC(Oc1ccc(-c2noc(=O)[nH]2)c(C2CC2)c1)c1sc(-c2ccc(C(F)(F)F)cc2)nc1C` (racemic) [Example 16, 3-(2-Cyclopropyl-4-{1-[4-methyl-2-(4-trifluoromethyl-Phenyl)-thiazol-5-yl]-propoxy}-phenyl)-4H-[1,2,4]oxadiazol-5-one] yielded an EC50 of 117 nM.

The compound `Cc1nc(-c2ccc(C(F)(F)F)cc2)sc1C(Oc1ccc(-c2noc(=O)[nH]2)c(Cl)c1)C(F)(F)F` (racemic) [Example 20, 3-(2-Chloro-4-{2,2,2-trifluoro-1-[4-methyl-2-(4-trifluoromethyl-phenyl)-thiazol-5-yl]-ethoxy}-phenyl)-4H-[1,2,4]oxadiazol-5-one] gave an EC50 of 307 nM.

On to `Cc1nc(-c2ccc(C(F)(F)F)cc2)sc1C(OCc1ccc(-c2noc(=O)[nH]2)c(F)c1)C(F)(F)F` (racemic) [Example 22, 3-(2-Fluoro-4-{2,2,2-trifluoro-1-[4-methyl-2-(4-trifluoromethyl-phenyl)-thiazol-5-yl]-ethoxymethyl}-phenyl)-4H-[1,2,4]oxadiazol-5-one], for which the EC50 was 2640 nM.

Take `Cc1nc(-c2ccc(C(F)(F)F)cc2)sc1C(OCc1ccc(-c2noc(=O)[nH]2)c2cccnc12)C(F)(F)F` (racemic) [Example 25, 3-(8-{2,2,2-Trifluoro-1-[4-methyl-2-(4-trifluoromethyl-phenyl)-thiazol-5-yl]-ethoxymethyl}-quinolin-5-yl)-4H-[1,2,4]oxadiazol-5-one]: a half-maximal effect (EC50) was put at 544 nM.

For `Cc1nc(-c2ccc(C(F)(F)F)cc2)sc1C(OCc1ccc(-c2noc(=O)[nH]2)c(Cl)n1)C(F)(F)F` (racemic) [Example 27, 3-(2-Chloro-6-{2,2,2-trifluoro-1-[4-methyl-2-(4-trifluoromethyl-phenyl)-thiazol-5-yl]-ethoxymethyl}-pyridin-3-yl)-4H-[1,2,4]oxadiazol-5-one], it took 1210 nM to reach a half-maximal effect (EC50).

As for `Cc1nc(-c2ccc(C(F)(F)F)cc2)sc1C(OCc1ccc(-c2noc(=O)[nH]2)cc1)C(F)(F)C1CC1` (racemic) [Example 32, 3-(4-{2-Cyclopropyl-2,2-difluoro-1-[4-methyl-2-(4-trifluoromethyl-phenyl)-thiazol-5-yl]-ethoxymethyl}-phenyl)-4H-[1,2,4]oxadiazol-5-one], the EC50 was above 33000 nM.

The compound `CCCCC(Cc1ccc(-c2noc(=O)[nH]2)c(F)c1)c1sc(-c2ccc(C(F)(F)F)cc2)nc1C` (racemic) [Example 34, 3-(2-Fluoro-4-{2-[4-methyl-2-(4-trifluoromethyl-phenyl)-thiazol-5-yl]-hexyl}-phenyl)-4H-[1,2,4]oxadiazol-5-one] displayed a concentration for a half-maximal effect (EC50) of 1070 nM.

In the case of `CCC(Oc1ccc(-c2noc(=O)[nH]2)c(F)c1)c1sc(-c2ccc(C(F)(F)F)cc2)nc1C` (racemic) [Example 35, 3-(2-Fluoro-4-{1-[4-methyl-2-(4-trifluoromethyl-phenyl)-thiazol-5-yl]-propoxy}-phenyl)-4H-1,2,4-oxadiazol-5-one], it took 269 nM to reach a half-maximal effect (EC50).

In the case of `CCC(Oc1ccc(-c2noc(=O)[nH]2)c(OC(F)F)c1)c1sc(-c2ccc(C(F)(F)F)cc2)nc1C` (racemic) [Example 37, 3-(2-Difluoromethoxy-4-{1-[4-methyl-2-(4-trifluoromethyl-phenyl)-thiazol-5-yl]-propoxy}-phenyl)-4H-1,2,4-oxadiazol-5-one], the EC50 was 223 nM.

`CCC(Oc1ccc(-c2noc(=O)[nH]2)c(OC)c1)c1sc(-c2ccc(C(F)(F)F)cc2)nc1CN1CCC(C(F)(F)F)CC1` (racemic) [Example 42, 3-(2-Methoxy-4-{1-[2-(4-trifluoromethyl-phenyl)-4-(4-trifluoromethyl-piperidin-1-ylmethyl)-thiazol-5-yl]-propoxy}-phenyl)-4H-1,2,4-oxadiazol-5-one] had an EC50 above 33000 nM.

Compound `CCC(Oc1ccc(-c2noc(=O)[nH]2)c(OCC(F)(F)F)c1)c1sc(-c2ccc(C(F)(F)F)cc2)nc1C` (racemic) [Example 48, 3-[4-{1-[4-Methyl-2-(4-trifluoromethyl-phenyl)-thiazol-5-yl]-propoxy}-2-(2,2,2-trifluoro-ethoxy)-phenyl]-4H-1,2,4-oxadiazol-5-one] returned an EC50 of 87 nM.

On to `CC[C@@H](Oc1cc(OC)c(-c2noc(=O)[nH]2)cc1F)c1sc(-c2ccc(C(F)(F)F)cc2)nc1C` [(+)-40, (+)-3-(5-Fluoro-2-methoxy-4-{(R)-1-[4-methyl-2-(4-trifluoromethyl-phenyl)-thiazol-5-yl]-propoxy}-phenyl)-4H-1,2,4-oxadiazol-5-one], for which the concentration giving a half-maximal response (EC50) was 677 nM.

`CC[C@@H](Oc1ccc(-c2noc(=O)[nH]2)c(OC(F)F)c1)c1sc(-c2ccc(C(F)(F)F)cc2)nc1CN1CCC(C(F)(F)F)CC1` [(+)-45, (+)-3-(2-Difluoromethoxy-4-{(R)-1-[2-(4-trifluoromethyl-phenyl)-4-(4-trifluoromethyl-piperidin-1-ylmethyl)-thiazol-5-yl]-propoxy}-phenyl)-4H-1,2,4-oxadiazol-5-one]: it took 1230 nM to reach a half-maximal effect (EC50).
